Tests used:
[1] = biological target: T1, D1R (Homo sapiens, UniProt P21728); test: D1R agonist/antagonist assays measuring cAMP modulation; conditions: agonist mode
[2] = biological target: T1, D1R; test: Binding affinity at dopamine D1R, [3H]SCH23390 radioligand; conditions: for selectivity D1R over D5R: from Ki values
[3] = biological target: D5R (Homo sapiens, UniProt P21918); test: Binding affinity at dopamine D5R, [3H]SCH23390 radioligand; conditions: from Ki values
Sequence of D5R (P21918 whole entry): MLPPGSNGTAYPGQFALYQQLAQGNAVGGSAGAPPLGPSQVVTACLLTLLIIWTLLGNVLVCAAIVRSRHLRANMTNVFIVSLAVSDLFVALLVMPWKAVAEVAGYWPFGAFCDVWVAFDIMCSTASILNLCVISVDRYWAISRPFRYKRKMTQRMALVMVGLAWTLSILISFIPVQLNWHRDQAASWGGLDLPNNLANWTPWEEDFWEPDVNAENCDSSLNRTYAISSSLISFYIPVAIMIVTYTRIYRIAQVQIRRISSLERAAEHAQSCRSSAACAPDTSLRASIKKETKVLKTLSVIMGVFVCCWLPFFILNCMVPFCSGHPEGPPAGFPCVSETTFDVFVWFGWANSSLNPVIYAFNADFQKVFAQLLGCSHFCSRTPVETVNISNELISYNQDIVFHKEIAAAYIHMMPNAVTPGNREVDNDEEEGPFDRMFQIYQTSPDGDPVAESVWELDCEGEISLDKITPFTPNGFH

T1 sequence (P21728 whole entry): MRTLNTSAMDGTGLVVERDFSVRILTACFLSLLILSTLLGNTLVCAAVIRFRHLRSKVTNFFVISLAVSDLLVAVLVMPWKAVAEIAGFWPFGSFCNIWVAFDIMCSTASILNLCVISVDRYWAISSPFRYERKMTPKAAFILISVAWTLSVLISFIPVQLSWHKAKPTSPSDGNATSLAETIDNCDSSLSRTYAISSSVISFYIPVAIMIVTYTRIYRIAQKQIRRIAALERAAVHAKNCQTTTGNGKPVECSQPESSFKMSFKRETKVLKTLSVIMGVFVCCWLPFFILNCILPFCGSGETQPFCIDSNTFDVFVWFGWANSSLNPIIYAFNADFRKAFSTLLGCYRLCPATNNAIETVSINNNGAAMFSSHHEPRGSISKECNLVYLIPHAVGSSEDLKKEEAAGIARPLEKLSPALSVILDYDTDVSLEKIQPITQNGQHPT

selectivity D1R over D5R [2]	SMILES	other results
–	COc1cc2c(cc1O)C(c1ccccc1Cl)CN(C)CC2 (stereo not drawn) [Compound 10a]	agonist activity [1]: No agonist activity was detected
up to 3 fold	COc1cc2c(cc1O)C(c1ccccc1)CNCC2 (stereo not drawn) [Compound 6a]	–
up to 3 fold	COc1cc2c(cc1O)C(c1ccccc1Br)CNCC2 (stereo not drawn) [Compound 6d]	–
–	Oc1cc2c(cc1O)C(c1ccccc1Br)CNCC2 (stereo not drawn) [Compound 7]	increase in D1R affinity versus C7 methoxy analog 6d ([2]; catechol 7 compared with 6d): roughly 3 fold
up to 3 fold	COc1cc2c(cc1O)C(c1ccccc1Cl)CNCC2 (stereo not drawn) [Compound 6b]	–
–	COc1cc2c(cc1O)C(c1c(Cl)cccc1Cl)CNCC2 (stereo not drawn) [Compound 6c]	selectivity D5R over D1R [3]: 3 fold
